The source of these data is patent US9487813B2, “Antifungal target” (F2G LTD, priority 2009, dated 2016).

For one experiment, the target named is T1, A. fumigatus PPTB (Aspergillus fumigatus, UniProt Q4W9R0).
T1 construct: NusA; His tag (vector-encoded, inferred from Ni-NTA purification); made in house; host or cells: E. coli BL21 (DE3)
T1 sequence (Q4W9R0 1-153): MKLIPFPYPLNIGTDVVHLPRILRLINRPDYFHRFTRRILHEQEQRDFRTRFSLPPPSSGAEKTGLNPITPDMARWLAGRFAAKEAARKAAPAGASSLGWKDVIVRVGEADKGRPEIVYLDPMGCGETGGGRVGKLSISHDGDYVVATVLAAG
In words: fluorescence polarisation PPTB assay / high-throughput screen (CoA-Bodipy TMR transfer to ACP). The class given is biochemical. The following applies: IC50 for CoA, assay carried out using unlabelled coenzyme A. As for the experimental part: High-throughput fluorescent polarization screens for PPTB inhibitors were carried out in black, flat-bottom 384 well plates using the following equipment: Thermo Labsystems Multidrop 384 machine (Multidrop® 384) with dispensing cassette and plate adapter; Tecan Genesis Freedom and Tecan Te—Mo automated liquid handling robot with 235 μl tip head, plus appropriate PC/base unit/software; PerkinElmer Minitrak automated liquid handling robot with 235 μl tip head plus appropriate PC/base unit/software; and PerkinElmer Fusion-Alpha-FP HT plate reading spectrophotometer plus appropriate FP filters (Excitation filter 540 nm; Emission filter 580 nm, both filters with 20 nm bandwidth).
Buffer A: 62.5 mM Bis-Tris buffer (pH 6.75), 12.5 mM MgCl2. The final concentrations in the assay were 50 mM Bis-Tris and 10 mM MgCl2.
CoA-Bodipy TMR-ACP mix: 11.6 ml ACP (3.421 mg/ml) plus 1854.7 μl CoA-Bodipy TMR stock (see Section 3.2 above) was made up to 529.9 ml with Buffer A at 4° C.
PPTB enzyme: PPTB enzyme was typically used at 50 to 100 ng total protein/well; enzyme was used at a concentration that gave reaction linearity with respect to both time and protein concentration. This had to be determined for each enzyme batch. […]
Assays were carried out in black, flat-bottomed 384-well plates. […] The reaction was terminated by the addition of 25 μl Stop Reagent, after which plates were read in a spectrophotometer. […]

The target in another experiment is recombinant PPTB (Aspergillus fumigatus, UniProt Q4W9R0). The settings on record: in the presence of magnesium ions and CoA-Bodipy TMR.

Description for recombinant PPTB: In the present work PPTB assays used a fluorescently-labelled coenzyme A molecule (CoA-Bodipy TMR), such that PPTB activity transferred the label onto the ACP. The PPTB reaction could therefore be followed by separating the products of the PPTB reaction on an SDS-PAGE gel and illuminating with UV light to see whether the ACP band had become fluorescent. For the high-throughput screen, the PPTB assays used a fluorescence polarisation approach. This measures changes in the orientation of plane-polarized light brought about by fluorophores that undergo significant molecular motion during their fluorescence lifetime. […] The reduction in rotation causes a reduction in the ability of the Bodipy TMR molecule to depolarise plane-polarised light, which can be measured.
Further experiments were carried out using fluorescence polarization to optimise the PPTB assay for high-throughput screening.

Regarding `CC(C)(COP(=O)(O)OP(=O)(O)OC[C@H]1O[C@@H](n2cnc3c(N)ncnc32)[C@H](O)[C@@H]1OP(=O)(O)O)[C@@H](O)C(=O)NCCC(=O)NCCS` [CoA, coenzyme A], the IC50 on A. fumigatus PPTB (plates read after 105 hours) is 5.9 µM; against A. fumigatus PPTB (plates read on day one) it was 6.02 µM. On to `O=C(O)CN(CCN(CC(=O)O)CC(=O)O)CC(=O)O` [EDTA], for which the “effect on the labelling reaction of ACP” value at recombinant PPTB is given as “inhibited”.
